For the test, the system named is herpes disease in the lip region (herpes blisters). Description: Topical application of the composition in the oral and/or pharyngeal cavity of voluntary test persons (herpes blisters, other inflammations). Format: in vivo, human (voluntary test persons). To be noted: a test subject. An excerpt:
This composition was applied in the oral and/or pharyngeal cavity of voluntary test persons. When there were signs that herpes blisters were about to occur or when herpes blisters had already occurred, the composition was applied several times daily to the affected skin sites using a cotton bud. In the case of other inflammations in the oral and/or pharyngeal cavity the solution was also either applied locally or a dilution of this solution was gurgled.

The values that follow come from patent publication US20080171097A1, “PRODUCT LIQUORICE ROOT AND OAK BARK IN COMBINATION WITH DEXAPANTHENOL” (priority 2007, published 2008).

Each structure is given as a SMILES string.

In the case of `Nc1nc2c(ncn2COCCO)c(=O)[nH]1` [Aciclovir], the “relapse / reoccurrence after treatment and healing of acute herpes blisters” value was “relapses very often occurred again within the following 14 days”.
